Results published in ChEMBL document CHEMBL4602605, “Fluoroquinolones structural and medicinal developments (2013-2018): Where are we now?” (Bioorg Med Chem, 2019).
Values after ≈ are worked out from the molar mass of the structure shown.

Key:
Format in all cases: functional
Escherichia coli [1] = assay: Antimicrobial activity against Escherichia coli ATCC 8739 by agar dilution method
Pseudomonas aeruginosa [2] = assay: Antimicrobial activity against Pseudomonas aeruginosa ATCC 9027 by agar well diffusion method
Staphylococcus aureus [3] = assay: Antimicrobial activity against Staphylococcus aureus ATCC 6538 by agar dilution method
Staphylococcus aureus [4] = assay: Antimicrobial activity against methicillin-resistant Staphylococcus aureus ATCC 12-1 incubated for 18 to 24 hrs
Pseudomonas aeruginosa [5] = assay: Antimicrobial activity against Pseudomonas aeruginosa ATCC 12-12 incubated for 18 to 24 hrs
[6] = tested on: Staphylococcus epidermidis; assay: Antimicrobial activity against methicillin-resistant Staphylococcus epidermidis 12-1 incubated for 18 to 24 hrs
Escherichia coli [7] = assay: Antimicrobial activity against Escherichia coli ATCC 25922 incubated for 18 to 24 hrs
Staphylococcus aureus [8] = assay: Antimicrobial activity against Staphylococcus aureus ATCC 25923 incubated for 18 to 24 hrs
Staphylococcus aureus [9] = assay: Antimicrobial activity against methicillin-resistant Staphylococcus aureus clinical isolate incubated for 16 hrs by CLSI based agar dilution method
Escherichia coli [10] = assay: Antimicrobial activity against Escherichia coli ATCC 700603 incubated for 16 hrs by CLSI-based agar dilution method; details: ATCC 700603, 16 h
[11] = tested on: Staphylococcus epidermidis; assay: Antimicrobial activity against methicillin-resistant Staphylococcus epidermidis clinical isolate incubated for 16 hrs by CLSI based agar dilution method
[12] = tested on: Staphylococcus epidermidis; assay: Antimicrobial activity against methicillin-susceptible Staphylococcus epidermidis clinical isolate incubated for 16 hrs by CLSI based agar dilution method
Klebsiella pneumoniae = assay: Antimicrobial activity against Klebsiella pneumoniae ATCC 29522 incubated for 16 hrs by CLSI-based agar dilution method; details: ATCC 29522, 16 h
Staphylococcus aureus [13] = assay: Antimicrobial activity against methicillin-susceptible Staphylococcus aureus clinical isolate incubated for 16 hrs by CLSI based agar dilution method

| MIC (Escherichia coli [1]) [µg/mL] | MIC (Pseudomonas aeruginosa [2]) [µg/mL] | MIC (Staphylococcus aureus [3]) [µg/mL] | Structure (SMILES) | MIC (Staphylococcus aureus [4]) [µg/mL] | MIC (Pseudomonas aeruginosa [5]) [µg/mL] | MIC [6] [µg/mL] | MIC (Escherichia coli [7]) [µg/mL] | MIC (Staphylococcus aureus [8]) [µg/mL] | MIC (Staphylococcus aureus [9]) [µg/mL] | MIC (Escherichia coli [10]) [µg/mL] | MIC [11] [µg/mL] | MIC [12] [µg/mL] | MIC (Klebsiella pneumoniae) [µg/mL] | MIC (Staphylococcus aureus [13]) [µg/mL] |
| --- | --- | --- | --- | --- | --- | --- | --- | --- | --- | --- | --- | --- | --- | --- |
| 2 (≈ 5.44 µM) | 1 (≈ 2.72 µM) | 4 (≈ 10.9 µM) | CCn1cc(C(=O)O)c(=O)c2cc(F)c(N3CCN(C)CC3)c(Cl)c21 |  |  |  |  |  |  |  |  |  |  |  |
|  |  |  | CO/N=C1\CCN(c2c(F)cc3c(=O)c(C(=O)O)cn(C4CC4)c3c2OC)CC1NC(=O)[C@H](N)[C@H](C)O (stereo not given in full) | 128 (≈ 246 µM) | 64 (≈ 123 µM) | 64 (≈ 123 µM) | 16 (≈ 30.8 µM) | 2 (≈ 3.85 µM) |  |  |  |  |  |  |
|  |  |  | O=C(O)c1cn(CCF)c2c(F)c(N3CCN(CC(O)Cn4cc([N+](=O)[O-])nc4Cl)CC3)c(F)cc2c1=O (stereo not given) |  |  |  |  |  | 32 (≈ 57.3 µM) | > 32 | 2 (≈ 3.58 µM) | 16 (≈ 28.6 µM) | > 32 | 16 (≈ 28.6 µM) |
|  |  |  | CCn1cc(C(=O)O)c(=O)c2cc(F)c(N3CCN(CC(O)Cn4cc([N+](=O)[O-])nc4Cl)C(C)C3)c(F)c21 (stereo not given) |  |  |  |  |  | 32 (≈ 57.7 µM) | 4 (≈ 7.21 µM) | 0.125 (≈ 0.225 µM) | 2 (≈ 3.6 µM) | 32 (≈ 57.7 µM) | 4 (≈ 7.21 µM) |
| 16 (≈ 47.2 µM) | 8 (≈ 23.6 µM) | < 0.125 | CCn1cc(C(=O)O)c(=O)c2cc(F)c(N3CCCC3)c(Cl)c21 |  |  |  |  |  |  |  |  |  |  |  |
|  |  |  | COc1c(N2C[C@@H]3CCCN(C[C@H](O)Cn4cc([N+](=O)[O-])nc4C)[C@@H]3C2)c(F)cc2c(=O)c(C(=O)O)cn(C3CC3)c12 |  |  |  |  |  | 2 (≈ 3.42 µM) | 2 (≈ 3.42 µM) | 0.03 (≈ 0.0513 µM) | 0.125 (≈ 0.214 µM) | 1 (≈ 1.71 µM) | 0.125 (≈ 0.214 µM) |
|  |  |  | CCC(C)[C@H](N)C(=O)NC1CN(c2c(F)cc3c(=O)c(C(=O)O)cn(C4CC4)c3c2OC)CC/C1=N\OC (stereo not given in full) | 64 (≈ 120 µM) | 128 (≈ 241 µM) | 64 (≈ 120 µM) | 8 (≈ 15 µM) | 0.5 (≈ 0.941 µM) |  |  |  |  |  |  |
| 31.2 | 128 | 2 | CCn1cc(C(=O)O)c(=O)c2cc(F)c(N3CCNC(C)C3)c(Cl)c21.Cl (stereo not given) |  |  |  |  |  |  |  |  |  |  |  |
|  |  |  | O=C(O)c1cn(C2CC2)c2nc(N3CCN(CC(O)Cn4cc([N+](=O)[O-])nc4Cl)CC3)c(F)cc2c1=O (stereo not given) |  |  |  |  |  | 16 (≈ 29.9 µM) | 16 (≈ 29.9 µM) | 0.125 (≈ 0.233 µM) | 2 (≈ 3.73 µM) | > 32 | 4 (≈ 7.46 µM) |
|  |  |  | COc1c(N2CCCC(N(C)CC(O)Cn3cc([N+](=O)[O-])nc3Cl)C2)c(F)cc2c(=O)c(C(=O)O)cn(C3CC3)c12 (stereo not given) |  |  |  |  |  | 8 (≈ 13.5 µM) | 4 (≈ 6.75 µM) | 0.25 (≈ 0.422 µM) | 0.5 (≈ 0.843 µM) | > 32 | 0.5 (≈ 0.843 µM) |
| 2 (≈ 5.19 µM) | 16 (≈ 41.5 µM) | 4 (≈ 10.4 µM) | N[C@@H]1CCN2c3c(F)cc4c(=O)c(C(=O)O)cn(C5CC5)c4c3CCCC[C@H]12 |  |  |  |  |  |  |  |  |  |  |  |
|  |  |  | CO/N=C1\CCN(c2c(F)cc3c(=O)c(C(=O)O)cn(C4CC4)c3c2OC)CC1NC(=O)[C@H]1CCCN1 (stereo not given in full) | 64 (≈ 124 µM) | 64 (≈ 124 µM) | 64 (≈ 124 µM) | 4 (≈ 7.76 µM) | 0.25 (≈ 0.485 µM) |  |  |  |  |  |  |
|  |  |  | COc1c(N2C[C@@H]3CCCN(CC(O)Cn4cc([N+](=O)[O-])nc4C)[C@@H]3C2)c(F)cc2c(=O)c(C(=O)O)cn(C3CC3)c12 (stereo not given in full) |  |  |  |  |  | 8 (≈ 13.7 µM) | 4 (≈ 6.84 µM) | 0.125 (≈ 0.214 µM) | 0.25 (≈ 0.428 µM) | 8 (≈ 13.7 µM) | 0.5 (≈ 0.855 µM) |
|  |  |  | CO/N=C1\CCN(c2c(F)cc3c(=O)c(C(=O)O)cn(C4CC4)c3c2OC)CC1NC(=O)[C@H](N)Cc1ccccc1 (stereo not given in full) | 64 (≈ 113 µM) | 128 (≈ 226 µM) | 64 (≈ 113 µM) | 16 (≈ 28.3 µM) | 0.125 (≈ 0.221 µM) |  |  |  |  |  |  |
|  |  |  | CCn1cc(C(=O)O)c(=O)c2cc(F)c(N3CCN(CC(O)Cn4cc([N+](=O)[O-])nc4Cl)CC3)nc21 (stereo not given) |  |  |  |  |  | 32 (≈ 61.1 µM) | > 32 | 4 (≈ 7.63 µM) | 2 (≈ 3.82 µM) | > 32 | 16 (≈ 30.5 µM) |
|  |  |  | CO/N=C1\CCN(c2c(F)cc3c(=O)c(C(=O)O)cn(C4CC4)c3c2OC)CC1NC(=O)[C@H](N)CO (stereo not given in full) | 64 (≈ 127 µM) | 128 (≈ 253 µM) | 64 (≈ 127 µM) | 16 (≈ 31.7 µM) | 1 (≈ 1.98 µM) |  |  |  |  |  |  |
|  |  |  | COc1c(N2CCCC(N(C)C[C@@H](O)Cn3cc([N+](=O)[O-])nc3C)C2)c(F)cc2c(=O)c(C(=O)O)cn(C3CC3)c12 (stereo not given in full) |  |  |  |  |  | 32 (≈ 55.9 µM) | 8 (≈ 14 µM) | 0.25 (≈ 0.437 µM) | 1 (≈ 1.75 µM) | 16 (≈ 27.9 µM) | 1 (≈ 1.75 µM) |
